Assay results from US20230142739A1, “PROTEIN-PROTEIN INTERACTION STABILIZERS” (The Regents of the University of California, priority 2020, published 2023).
Where two headings read alike, the source gives them in different places. Non-standard residues stand in square brackets, D forms with d. Residues, ends and D or L forms follow the SMILES beside them. *: point of attachment. 5FAM = O=C1OC2(c3ccc(O)cc3Oc3cc(O)ccc32)c2ccc(C(=O)*)cc21; pT = C[C@@H](OP(=O)(O)O)[C@H](N)C(=O)O; pS = N[C@@H](COP(=O)(O)O)C(=O)O

How the values were obtained:
Type in all cases: binding
[1] = biological target: T1, 14-3-3σ(C42) (Homo sapiens, UniProt P31947, C38N/N42C); assay: Fluorescence anisotropy titration of 14-3-3σ(C42) to fluorescein-labeled partner peptides
T1 construct: with a truncated C-terminus after T231; His6 (N, cleaved yes); made in house; host or cells: E. coli NiCo21 (DE3), pPROEX HTb
T1 sequence (P31947 1-231 C38N/N42C): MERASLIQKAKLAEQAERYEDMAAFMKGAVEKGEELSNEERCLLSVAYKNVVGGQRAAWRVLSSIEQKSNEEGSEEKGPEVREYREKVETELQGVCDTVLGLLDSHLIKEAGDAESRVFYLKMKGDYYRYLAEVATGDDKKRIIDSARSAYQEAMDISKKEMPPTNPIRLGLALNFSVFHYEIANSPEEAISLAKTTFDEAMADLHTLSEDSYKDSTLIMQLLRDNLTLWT
Protocol: The 14-3-3/ER stabilizer FC (Fusicoccin) inhibits estradiol dependent signaling. FC (a natural product) inhibits dimerization of E2/ER and tamoxifen/ER. FC also blocks DNA binding and transcription (482) (PNAS May 28, 2013 110 (22) 8894-8899). Disulfide trapping for stabilizers of 14-3-3σ/ERα-pp (15-mer phosphopeptide representing the 14-3-3σ binding motif of ERα), was measured (J. Am. Chem. Soc. 2019, 141, 8, 3524-3531, FIG. 1b). Different cysteine residues yield different 14-3-3/client stabilizing chemical moieties. At each tethering residue, bound chemical moieties can be competitive with peptide, noncompetitive, or cooperative (J. Am. Chem. Soc. 2019, 141, 8, 3524-3531, FIG. 1c). […] 14-3-3σ (C42) expected mass: 26509 Da, βME capped mass: 26585 Da, protein-disulfide conjugate mass: 26795 Da. LC/MS dose response curves showing percentage of protein conjugate formation for titrations of disulfides to 14-3-3σ (C42) apo and bound to ERα-pp, were measured. […] LC/MS dose response curves showing percentage of protein conjugate formation for titrations of disulfides to 14-3-3σ (C42) apo and bound to ERα-pp, were measured. […] Dose-response curve of Fragment 1, which induces ERα binding, were measured (J. Am. Chem. Soc. 2019, 141, 8, 3524-3531, FIG. 2a-2b, supporting information). Small molecules stabilize 14-3-3σ/Erα-pp binding. […] Schematic of experimental design and Plot of anisotropy (mean+SD) for titrations of Frag001, Frag002, FC-A (natural product fusicoccane-A), or DMSO control to fluorescein-Erα-pp and 1 μM 14-3-3σ (C42) (J. Am. Chem. Soc. 2019, 141, 8, 3524-3531, FIG. 3a-3b). Dose-response curves were obtained by MS by analyzing % tethering for titrations of Fragment 2 to 14-3-3σ apo (− peptide;) or bound to different interaction partner-derived peptide motifs; ERα-pp ( ), TASK3-pp ( ), ExoS ( ) or TAZ-pp ( ), starting from 1 mM (J. Am. Chem. Soc. 2019, 141, 8, 3524-3531, FIG. 4b). LC/MS screening data of hits for 14-3-3σ (C42)+/−ERα-pp was collected. The deconvoluted LC/MS spectra of disulfide fragments bound to 14-3-3σ (C42) alone or in complex with ERα-pp were determined with 14-3-3σ (C42) expected mass: 26509 Da, βME capped mass: 26585 Da, protein-disulfide conjugate mass: between 26752-26919 Da. Fragments bound preferentially in the presence of ERα-pp: 959996 (1), 916971, and 917137 were termed ‘cooperative’. […] Fluorescence anisotropy (r) of fluorescein-ERα-pp versus concentration of 6 or FC-A binding to 14-3-3σ(C42) or 14-3-3σ(C45) was tested. […]
Fluorescence Anisotropy. […] Fluorescence anisotropy measurements were performed directly and after overnight incubation at room-temperature, using a Tecan Infinite F500 plate reader (filter set λex: 485±20 nm, λem: 535±25 nm). […]

[2] = biological target: T2, Pin1_72/14-3-3 complex (Homo sapiens, UniProt P61981); assay: Fluorescence anisotropy compound titration, Pin1_72/14-3-3 (CC50)
T2 construct: the full length 14-3-3γ was dialysis against 25 mM HEPES pH 7.5; made in house; host or cells: E. coli BL21(DE3), pPROEX HTb
T2 sequence (P61981 1-247): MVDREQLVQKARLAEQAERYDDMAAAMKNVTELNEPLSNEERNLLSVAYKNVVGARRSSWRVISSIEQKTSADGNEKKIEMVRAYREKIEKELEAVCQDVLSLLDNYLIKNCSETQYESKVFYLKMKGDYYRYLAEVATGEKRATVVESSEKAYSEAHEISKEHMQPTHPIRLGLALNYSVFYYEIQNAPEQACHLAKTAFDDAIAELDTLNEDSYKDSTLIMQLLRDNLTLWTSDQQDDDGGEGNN
Protocol: Site-Directed Shift base fragment Screening. […] As measure of activity the inflection point of the curve was determined, representing the half-maximum complex formation (CC50).
(§1) Fluorescence Anisotropy (FA) Assays.

[3] = biological target: T3, Pin1_72/14-3-3γ (Homo sapiens, UniProt P61981+Q13526); assay: Fluorescence anisotropy protein titration, Pin1_72/14-3-3γ at constant compound; settings: based on internal DMSO control and 100 μM fragment
T3 construct: the full length 14-3-3γ was dialysis against 25 mM HEPES pH 7.5; made in house; host or cells: E. coli BL21(DE3), pPROEX HTb
Source text: Inspired by the binding poses of 3 and 9 we combined their structural features to improve stabilization. […] In case of complex stabilization, a left shift of apparent KD values is expected, here described as stabilization factors (SF).
as §1

[4] = biological target: T4, 14-3-3/Pin1_72 complex (Homo sapiens, UniProt P61981); assay: Cooperativity analysis, 14-3-3 titrations at varied constant fragment concentration
T4 construct: the full length 14-3-3γ was dialysis against 25 mM HEPES pH 7.5; made in house; host or cells: E. coli BL21(DE3), pPROEX HTb
Source text: Cooperativity in ternary complex formation. In contrast to PPI inhibition, where affinity to one of the protein pockets is the driving force for drug development, design of molecular glues is driven by cooperative ternary complex formation. Both CC50 and SF values are concentration dependent values and might differ based on assay design. […] Cooperative complex formation is often accompanied by structural changes of the interface of a complex which translates to increased stability of the ternary com-plex. In order to assess cooperativity of the ternary complex, fragments 13, 23, 27 and 28 were selected for cooper-activity analysis. The α-factor of the fragments were determined using 14-3-3 titrations in the presence of varied, but constant concentration of fragment in a dose-dependent manner. […] Further, the interval of change in stabilization further describes the systems cooperative behaviour.
However, at higher concentration regimes significant assay interference was observed, probably due to compound aggregation. Fragments 23, 27 and 28 all reached saturation or approached saturation enabling accurate determination of α-factor. […] KD remains constant also at higher concentrations of FC-A, indicating non-specific effects.

[5] = biological target: T5, 14-3-3σ(C42)/ERα-pp complex (Homo sapiens, UniProt P31947, C38N/N42C); assay: Disulfide tethering primary screen, intact protein LC/MS, protein-peptide complex
T5 construct: with a truncated C-terminus after T231; His6 (N, cleaved yes); made in house; host or cells: E. coli NiCo21 (DE3), pPROEX HTb
Protocol: Apo-14-3-3σ or the 14-3-3σ/ERα-pp complex was screened against a 1600-member disulfide library under mildly reducing conditions (100 μM betamercaptoethanol; βME). Conjugate formation for each individual reaction was analyzed by intact protein MS. Three peaks observed in mass spectra corresponded to apo, βME-capped, and fragment-conjugated 14-3-3σ. The ‘percent tethering’, defined as the intensity of the fragment-specific conjugate protein peak divided by the sum of the intensities for all protein peaks, was calculated for each individual experiment using an automated pipeline. (492)
Disulfide Tethering screening and data processing. The primary screening was performed by incubating the target with individual compounds in a 384-well plate format. A custom library of 1600 disulfide-containing fragments of the UCSF Small Molecule Discovery Center (SMDC), synthesized as previously reported, was available as 50 mM stock solutions in DMSO. (496, 497) For screening, 14-3-3σ wild-type and Cys-mutants were diluted to 100 nM in buffer (10 mM Tris, 100 μM betamercaptoethanol (βME), pH 8.0) and plated in 384-well plates (15 μL/well). 30 nL of each fragment was pinned from the library master plates into the protein samples using a Biomek FX (Beckman) to give a final concentration of 100 μM. The duplicate experiments additionally contained 200 nM ERα-pp. The reaction mixtures were incubated for 3 hours at RT before being subjected to LC/MS (I-class Acquity UPLC/Xevo G2-XS Quadrupole Time of Flight mass spectrometer, Waters). Data collection and automated processing followed a custom workflow, as previously described. (492) All compounds described in the text were from the same lot as the original screening material.

Row | SMILES | SF (fold stabilization) [3] | hit category (binding in presence vs absence of ERα-pp) [5] | also measured
1 | CC[C@H](C)[C@H](NC(=O)[C@H](Cc1ccc(O)cc1)NC(=O)[C@H](Cc1ccc(O)cc1)NC(=O)[C@H](CCCCN)NC(C)=O)C(=O)N[C@H](C(=O)NCC(=O)N[C@@H](CCC(=O)O)C(=O)N[C@@H](C)C(=O)N[C@@H](CCC(=O)O)C(=O)NCC(=O)N[C@@H](Cc1ccccc1)C(=O)N1CCC[C@H]1C(=O)N[C@@H](C)C(=O)N[C@H](C(=O)N[C@H](C(=O)O)C(C)C)[C@@H](C)OP(=O)(O)O)[C@@H](C)O [ERα-pp] (Ac-KYYITGEAEGFPA[pT]V-OH) | – | – | EC50 [1]: 300 nM
2 | CC(C)C[C@H](NC(=O)CNC(=O)[C@H](CCC(N)=O)NC(=O)CNC(=O)[C@H](Cc1c[nH]cn1)NC(=O)CNC(=O)[C@H](CO)NC(=O)c1ccc2c(c1)C(=O)OC21c2ccc(O)cc2Oc2cc(O)ccc21)C(=O)N[C@@H](CC(C)C)C(=O)N[C@@H](CC(=O)O)C(=O)N[C@@H](C)C(=O)N[C@@H](CC(C)C)C(=O)N[C@@H](CC(=O)O)C(=O)N[C@@H](CC(C)C)C(=O)N[C@@H](C)C(=O)N[C@@H](CO)C(N)=O [ExoS] | – | – | EC50 [1]: 11100 nM
3 | O=Cc1ccc(-n2ccnc2)c(Cl)c1 [L2] | 0.8 | – | activity in FA assay [2]: significant complex formation
4 | CC(C)[C@H](NC(=O)[C@H](COP(=O)(O)O)NC(=O)[C@H](CCCCN)NC(=O)[C@H](CCCNC(=N)N)NC(=O)[C@H](CCCNC(=N)N)NC(=O)c1ccc2c(c1)C(=O)OC21c2ccc(O)cc2Oc2cc(O)ccc21)C(=O)O [TASK3-pp, KRRKpS^373V-OH] (5FAM-RRK[pS]V-OH) | – | – | EC50 ([1]; fluorescein-labeled peptide): 200 nM
5 | CC(C)C[C@H](NC(=O)[C@H](CCC(N)=O)NC(=O)[C@H](CC(C)C)NC(=O)[C@H](CO)NC(=O)[C@H](C)NC(=O)[C@@H]1CCCN1C(=O)[C@H](CO)NC(=O)[C@H](COP(=O)(O)O)NC(=O)[C@H](Cc1c[nH]cn1)NC(=O)[C@H](CO)NC(=O)[C@H](CCCNC(=N)N)NC(=O)c1ccc2c(c1)C(=O)OC21c2ccc(O)cc2Oc2cc(O)ccc21)C(=O)NCC(=O)N[C@H](C(N)=O)[C@@H](C)O [TAZ-pp, RSHpS^89SPASLQ] (5FAM-RSH[pS]SPASLQLGT-NH2) | – | – | EC50 ([1]; fluorescein-labeled peptide): 2200 nM
6 | O=Cc1ccc(-n2ccnc2-c2ccc(O)cc2)cc1Br [compound 25, 2-bromo-4-(2-(4-hydroxyphenyl)-1H-imidazol-1-yl)benzaldehyde] | – | – | activity in FA assay [2]: limited effect

Continued, in another order:

Row | SF (fold stabilization) [3] | hit category (binding in presence vs absence of ERα-pp) [5] | SMILES | also measured
7 | 1.2 | – | O=Cc1ccc(-n2ccnc2-c2ccccc2)cc1C(F)(F)F [compound 14, 4-(2-phenyl-1H-imidazol-1-yl)-2-(trifluoromethyl)benzaldehyde] | –
8 | 4.9 | – | O=Cc1ccc(-n2ccnc2-c2ccccc2)cc1O [compound 19, 2-hydroxy-4-(2-phenyl-1H-imidazol-1-yl)benzaldehyde] | –
9 | 18.9 | – | O=Cc1ccc(-n2ccnc2-c2ccccc2Br)cc1Br [compound 23, 2-bromo-4-(2-(2-bromophenyl)-1H-imidazol-1-yl)benzaldehyde] | cooperativity factor (α-factor) [4]: approximately 60
10 | – | cooperative | NCCSSCCCC(=O)NCC(c1ccccc1)c1ccccc1 [compound 916971] | –
11 | – | cooperative | CN(C)CCSSCCNC(=O)c1ccccc1Sc1ccccc1C#N [compound 917137] | –
12 | – | neutral | CN(C)CCSSCCNC(=O)C1CCN(C(=O)c2ccccc2NC(=O)c2ccccc2)CC1 [compound 917805] | –
13 | – | neutral | CN(C)CCSSCCn1cc(CN2C(=O)C(=O)c3ccccc32)nn1 [compound 957838] | –
